Measured values reported in patent US10189796B2, “[4-(1,3,3-trimethyl-2-oxo-3,4-dihydro-1H-quinoxalin-7-yl)phenoxy]ethyloxy compound or salt thereof” (SANTEN PHARMACEUTICAL CO., LTD., priority 2015, dated 2019).
Structures can show the parent of a compound that is named as a salt.

Experiments:
[1] = system: IL-6 production in human corneal epithelium cell line (HCE-T); assay: IL-6 production inhibitory action evaluation test (LPS stimulation, HTRF); format: cell-based; settings: 4 hours; for Emax: 100 μM test compound solution 10 μL/well, DEX treated group = 100, read-out: IL-6 production inhibitory ratio (% DEX); for IC50: IL-6 production inhibition
Method: To evaluate the action of the present compounds as a GR agonist, IL-6 production inhibitory action in human corneal epithelial cell line after LPS stimulation was examined The IL-6 production was measured by using the HTRF method (Cat No. 62IL6PEB manufactured by Cisbio Bioassays, Inc.) according to the attached protocol. The specific method is described below.
LPS solution: After dissolving LPS in PBS(−), the resulting solution was diluted with a culture solution, whereby an LPS solution with a 1 μg/mL concentration was prepared.
After dissolving the test compound in dimethylsulfoxide, the solution was diluted with a 10% FBS-DMEM/Ham's F12 medium, whereby a 100 μM of the test compound solution was prepared. […] In addition, DEX was similarly dissolved, whereby a 100 μM concentration of the DEX solution was prepared, and an IL-6 production inhibitory ratio of DEX was measured, and used for calculation of Efficacy (% DEX).
Used cells: human corneal epithelium cell line (HCE-T) (RIKEN, Institute of Physical and Chemical Research)
The cells continued to subculture according to this method were used for the test. (Test Method and Measurement Method) • 1) The subcultured HCE-T was recovered and the cells were seeded at 2.0×10^4 cells/0.1 mL/well in a 96-well flat bottom culture plate. • 2) After culturing overnight, medium the medium was removed and each 80 μL/well of 10%
FBS-DMEM/Ham's F12 medium was added. • 3) Test compound solution was added with each 10 μL/well. • 4) LPS solution was added with each 10 μL/well. • 5) The sample to which 1% dimethylsulfoxide-containing 10% FBS-DMEM/Ham's F12 medium was added with each 10 μL/well in place of each test compound solution, and 10% FBS-DMEM/Ham's F12 medium was added in place of the LPS solution was made a negative control. • 6) The sample in which 1% dimethylsulfoxide-containing 10% FBS-DMEM/Ham's F12 medium was added with each 10 μL/well in place of each test compound solution was made a positive control. • 7) After completion of 4 hours cultivation, the supernatant was recovered and the amount of IL-6 released in the supernatant was measured by using an HTRF human IL-6 Kit. • 8) The IL-6 production inhibitory ratio was calculated according to the following calculation formula. (Calculation of IL-6 Production Inhibitory Ratio)
The IL-6 production inhibitory ratio (%) was calculated by the following formula. IL-6 production inhibitory ratio (%)=100×{1−(IL-6 produced amount of each test compound solution−average value of IL-6 produced amount of negative control group)/(average value of IL-6 produced amount of positive control group−average value of IL-6 produced amount of negative control group)}(%)
Further, the IL-6 production inhibitory ratio (Efficacy (% DEX)) when the DEX treated group was made 100 was calculated. Efficacy (% DEX)=100×{(average value of IL-6 production inhibitory ratio of each test compound solution)/(average value of IL-6 production inhibitory ratio of DEX treated group)}(%)
In addition, IC50 was calculated according to a conventional method. IDBS XLfit4 was used for the calculation.

Recombinant human GR = Recombinant human GR (Homo sapiens (Human), UniProt P04150); assay: GR competitive binding assay by fluorescence polarization; settings: 20 μM test compound solution, 10 μL/well; 2 hours; DEX positive control; read-out: GR binding rate (%)
Method: In order to evaluate a binding activity of the present compound to GR, a GR receptor competitor assay was carried out by a fluorescence polarization method. In the assay, a GR competitive binding assay kit (manufactured by Invitrogen, cat No. P2816) was used for the assay, and a procedure was carried out according to the protocol attached to the kit. Hereinafter, the specific method will be described.
GR screening buffer: A buffer containing 10 mM of potassium phosphate (pH 7.4), 20 mM of sodium molybdate (Na2MoO4), 0.1 mM of ethylene diamine tetraacetic acid (EDTA), 5 mM of dithiothreitol (DTT), 0.1 mM of stabilizing peptide and 2% of dimethylsulfoxide was prepared.
4×GS1 solution: Fluormone™ GS1, which is a fluorescent glucocorticoid ligand, was diluted with GR screening buffer, whereby a 4 nM solution was prepared.
4×GR solution: Recombinant human GR was diluted with GR screening buffer, whereby a 16 nM solution was prepared.
After a test compound was dissolved in dimethylsulfoxide, the resulting solution was diluted with GR screening buffer, whereby a 20 μM test compound solution was prepared. In addition, DEX was similarly dissolved, whereby a DEX solution with a […] concentration was prepared, and the solution was diluted with GR screening buffer, whereby a 2 mM DEX solution was prepared. DEX was used as positive control.
• 1) The test compound solution was added in an amount of 10 μL into each well of a 384-well plate. • 2) 4×GS1 solution and 4×GR solution were added in an amount of 5 μL into each well, respectively. • 3) GR screening buffer was added in an amount of 10 μL/well into each well in place of the test compound solution, which was made a negative control. • 4) A 2 mM of DEX was added in an amount of 10 μL/well into each well in place of the test compound solution, which was made a positive control. • 5) The plate was incubated in a dark place at room temperature for 2 hours, and fluorescence polarization of each well was measured. (Calculation Equation of GR Binding Ratio)
A GR binding ratio (%) was calculated from the following equation. GR binding ratio (%)=100×{1−(fluorescence polarization of test compound solution−average value of fluorescence polarization of positive control solution)/(average value of fluorescence polarization of negative control solution−average value of fluorescence polarization of positive control solution)}

Chain of Recombinant human GR (P04150 whole entry): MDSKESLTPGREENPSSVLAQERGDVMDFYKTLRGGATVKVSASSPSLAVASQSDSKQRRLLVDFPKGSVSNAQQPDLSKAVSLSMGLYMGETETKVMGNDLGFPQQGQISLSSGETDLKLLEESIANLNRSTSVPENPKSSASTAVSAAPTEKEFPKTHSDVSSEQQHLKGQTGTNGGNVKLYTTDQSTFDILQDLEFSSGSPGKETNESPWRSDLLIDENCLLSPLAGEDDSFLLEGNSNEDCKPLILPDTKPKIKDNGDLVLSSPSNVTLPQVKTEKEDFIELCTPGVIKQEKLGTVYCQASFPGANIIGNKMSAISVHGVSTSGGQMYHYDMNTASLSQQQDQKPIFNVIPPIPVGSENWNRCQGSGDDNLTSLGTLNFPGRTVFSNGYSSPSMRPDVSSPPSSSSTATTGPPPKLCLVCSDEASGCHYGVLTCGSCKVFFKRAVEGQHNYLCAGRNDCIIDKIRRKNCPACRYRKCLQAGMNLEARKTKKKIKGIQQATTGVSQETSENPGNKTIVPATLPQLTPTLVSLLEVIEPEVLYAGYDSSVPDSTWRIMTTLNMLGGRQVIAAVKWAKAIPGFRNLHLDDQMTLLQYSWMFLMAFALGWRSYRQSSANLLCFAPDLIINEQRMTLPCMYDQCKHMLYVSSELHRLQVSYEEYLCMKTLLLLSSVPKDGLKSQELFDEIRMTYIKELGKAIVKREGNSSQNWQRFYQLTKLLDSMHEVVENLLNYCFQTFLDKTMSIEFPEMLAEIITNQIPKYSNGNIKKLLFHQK

SMILES	Emax [1] [%]	inhibition at 10 µM (Recombinant human GR) [%]	IC50 [1] [nM]	inhibition at 20 µM (stock) (Recombinant human GR) [%]
COc1cc(OC[C@H](C)OC(=O)CN)ccc1-c1ccc2c(c1COc1cc(F)ccc1C)N(C)C(=O)C(C)(C)N2 [Compound 11-4, (S)-7-[4-(2-aminoacetoxypropyl)oxy-2-methoxyphenyl]-8-(5-fluoro-2-methylphenoxy-methyl)-1,3,3-trimethyl-3,4-dihydro-1H-quinoxalin-2-one hydrochloride]	94			
COc1cc(OCC(O)CC(=O)OC(C)(C)C)ccc1-c1ccc2c(c1COc1cc(F)ccc1C)N(C)C(=O)C(C)(C)N2 (centres unmarked) [Compound 7-2, 7-[4-(3-t-butoxycarbonyl-2-hydroxypropyl)oxy-2-methoxyphenyl]-8-(5-fluoro-2-methylphenoxymethyl)-1,3,3-trimethyl-3,4-dihydro-1H-quinoxalin-2-one]	> 99	> 99	83	
COc1cc(OCC(O)CO)ccc1-c1ccc2c(c1COc1cc(F)ccc1C)N(C)C(=O)C(C)(C)N2 (centres unmarked) [Compound 4-1, 7-[4-(2,3-dihydroxypropyl)oxy-2-methoxyphenyl]-8-(5-fluoro-2-methylphenoxymethyl)-1,3,3-trimethyl-3,4-dihydro-1H-quinoxalin-2-one]		> 99		
CCOC(=O)C(O)COc1ccc(-c2ccc3c(c2COc2cc(F)ccc2C)N(C)C(=O)C(C)(C)N3)c(OC)c1 (stereo in doubt) [Compound 1-6, (R)-7-[4-(2-ethoxycarbonyl-2-hydroxyethyl)oxy-2-methoxyphenyl]-8-(5-fluoro-2-methylphenoxymethyl)-1,3,3-trimethyl-3,4-dihydro-1H-quinoxalin-2-one]	89	87	< 1	
COc1cc(OC[C@H](O)CO)ccc1-c1ccc2c(c1COc1cc(F)ccc1C)N(C)C(=O)C(C)(C)N2 [Compound 4-3, (R)-7-[4-(2,3-dihydroxypropyl)oxy-2-methoxyphenyl]-8-(5-fluoro-2-methylphenoxy-methyl)-1,3,3-trimethyl-3,4-dihydro-1H-quinoxalin-2-one]		88		
COc1cc(OCC(O)CC(=O)N2CCCC2)ccc1-c1ccc2c(c1COc1cc(F)ccc1C)N(C)C(=O)C(C)(C)N2 (centres unmarked) [Compound 10-1, 8-(5-fluoro-2-methylphenoxymethyl)-7-[4-[3-(N-pyrrolidylcarbonyl)-2-hydroxypropyl]oxy-2-methoxyphenyl]-1,3,3-trimethyl-3,4-dihydro-1H-quinoxalin-2-one]		94		
CCOC(=O)CC(O)COc1ccc(-c2ccc3c(c2COc2cc(F)ccc2C)N(C)C(=O)C(C)(C)N3)c(OC)c1 (centres unmarked) [Compound 7-1, 7-[4-(3-ethoxycarbonyl-2-hydroxypropyl)oxy-2-methoxyphenyl]-8-(5-fluoro-2-methylphenoxymethyl)-1,3,3-trimethyl-3,4-dihydro-1H-quinoxalin-2-one]		> 99		
COc1cc(OC[C@H](C)OC(=O)[C@@H](N)C(C)C)ccc1-c1ccc2c(c1COc1cc(F)ccc1C)N(C)C(=O)C(C)(C)N2 [Compound 11-5, 7-[4-[(2S)-[(2S)-amino-3-methylbutanoyloxy]propyl]oxy-2-methoxyphenyl]-8-(5-fluoro-2-methylphenoxymethyl)-1,3,3-trimethyl-3,4-dihydro-1H-quinoxalin-2-one hydrochloride]	94	> 99		
COc1cc(OC[C@H](O)CC#N)ccc1-c1ccc2c(c1COc1cc(F)ccc1C)N(C)C(=O)C(C)(C)N2 [Compound 5-1, (R)-7-[4-(3-cyano-2-hydroxypropyl)oxy-2-methoxyphenyl]-8-(5-fluoro-2-methyl-phenoxymethyl)-1,3,3-trimethyl-3,4-dihydro-1H-quinoxalin-2-one]	98	88	14	
COc1cc(OCC(O)CC(=O)O)ccc1-c1ccc2c(c1COc1cc(F)ccc1C)N(C)C(=O)C(C)(C)N2 (centres unmarked) [Compound 9-1, 7-[4-(3-Carboxy-2-hydroxypropyl)oxy-2-methoxyphenyl]-8-(5-fluoro-2-methylphenoxymethyl)-1,3,3-trimethyl-3,4-dihydro-1H-quinoxalin-2-one]		> 99		
COc1cc(OCC(O)CC(=O)N2CCCCC2)ccc1-c1ccc2c(c1COc1cc(F)ccc1C)N(C)C(=O)C(C)(C)N2 (centres unmarked) [Compound 10-3, 8-(5-fluoro-2-methylphenoxymethyl)-7-[4-[3-(N-piperidino)carbonyl-2-hydroxy-propyl]oxy-2-methoxyphenyl]-1,3,3-trimethyl-3,4-dihydro-1H-quinoxalin-2-one]		> 99		
COc1cc(OCCO)ccc1-c1ccc2c(c1COc1cc(F)ccc1C)N(C)C(=O)C(C)(C)N2 [Compound 3-1, 8-(5-fluoro-2-methylphenoxymethyl)-7-[4-(2-hydroxyethyl)oxy-2-methoxyphenyl]-1,3,3-trimethyl-3,4-dihydro-1H-quinoxalin-2-one]		> 99		
COc1cc(OC[C@@H](O)CO)ccc1-c1ccc2c(c1COc1cc(F)ccc1C)N(C)C(=O)C(C)(C)N2 [Compound 4-2, (S)-7-[4-(2,3-dihydroxypropyl)oxy-2-methoxyphenyl]-8-(5-fluoro-2-methylphenoxy-methyl)-1,3,3-trimethyl-3,4-dihydro-1H-quinoxalin-2-one]				> 99
